Assay results taken from publication PMC7199514 (Frontiers in Chemistry, 2020).

What was measured:
A549 cells = assay: MTT antiproliferation assay, A549; details: read-out: IC50 to cell lines, A549, exposed to tested compounds for 48 h
Procedure: (§2) The cancer cell lines HeLa, A549, MCF-7, and A431 were obtained from the Center for Cell Resource of Peking Union Medical College Hospital, except that A549 cisplatin-resistant subline A549/DDP was obtained by incubation of increased concentration of cisplatin in the culture media until the IC50 value toward cisplatin was above three times of that of A549 cells. The cells were maintained in DMEM (Invitrogen, USA) media supplemented with 10% fetal calf serum (HyClone, USA), 1% PS at 310 K with 5% CO2. The IC50 values were determined using 3-(4,5-dimethyl-2-thiazolyl)-2,5-diphenyl-2-H-tetrazolium bromide (MTT) assay. […] Then cells were exposed to each tested compound at eight concentrations for 48 h. The resulting solution was removed and washed for two times using PBS; then 100 μl cell culture medium containing MTT (0.5 mg/ml) was added to the wells and incubated at 310 K for 4 h. Finally, the MTT media was removed and 100 μl DMSO added to each well to dissolve the formazan crystals. The optical density (OD) values were measured using a microplate reader (SpectraMax M5) at the wavelength of 570 nm. […] The IC50 value was calculated in Origin 8.0 using the logistic regression model. All reported values were averages of six independent experiments and expressed as mean ± standard deviation (SD).

A431 cells = assay: MTT antiproliferation assay, A431; details: read-out: IC50 to cell lines, A431, exposed to tested compounds for 48 h
Procedure: as §2

[1] = test system: A549 cisplatin-resistant subline A549/DDP; assay: MTT antiproliferation assay, A549/DDP; details: read-out: IC50 to cell lines, A549/DDP, exposed to tested compounds for 48 h
Procedure: as §2

MCF-7 cells = assay: MTT antiproliferation assay, MCF-7; details: read-out: IC50 to cell lines, MCF-7, exposed to tested compounds for 48 h
Procedure: as §2

HeLa cells = assay: MTT antiproliferation assay, HeLa; details: read-out: IC50 to cell lines, HeLa, exposed to tested compounds for 48 h
Procedure: as §2

[2] = molecular target: T1, EGFR (kinase domain only) (Homo sapiens, UniProt P00533); assay: EGFR inhibition by ELISA; format: biochemical; details: ELISA in the presence of 200 μM of ATP
T1 construct: mixed with as-prepared EGFR (kinase domain only) solution; purchased Cell Signaling Technology, Inc. (assay kit); 7909
Procedure: Enzyme-linked immunosorbent assay (ELISA) was employed to evaluate the inhibition of compounds against EGFR. The ELISA screening was performed following the instruction provided by the supplier of the assay kits (no. 7909, Cell Signaling Technology, Inc.). An aliquot (10 μl) of the enzyme solution was added to 415 μl dithiothreitol (DTT) kinase buffer, which consists of 1.25 M DTT and 4 × HTScan® tyrosine kinase buffer [240 mM HEPES (pH 7.5), 20 mM MgCl2, 20 mM MnCl2, and 12 μM Na3VO4]. Each tested Pt compound was dissolved in dimethyl sulfoxide (DMSO) to give a 4 mM solution which was then diluted by deionized water prior to use. The ATP/peptide mixture was prepared by addition of 10 μl of 2.5 mM ATP to 125 μl of 6 μM substrate peptide and then diluted with D2O to 250 μl. An aliquot (12.5 μl) of the solution of a tested compound was mixed with as-prepared EGFR (kinase domain only) solution [12.5 μl, in 50% glycerol, containing 50 mM HEPES (pH = 7.6), 150 mM NaCl, 0.1% Triton, and 1 mM DTT, Sigma Chemical Company] and incubated at 298 K for 5 min, followed by addition of 25 μl of ATP/substrate mixture, and then the resulting mixture was incubated at 310 K for 1 h. The phosphorylation reaction was terminated by the addition of 50 μl/well stop buffer (50 mM EDTA, pH = 8). Each well of a microtiter plate was coated with 100 μl of 10 μg/ml streptavidin (Tianjin Biotechnology Co. Ltd., China) in carbonate–bicarbonate buffer and incubated overnight at 277 K and then blocked with 1.5% bovine serum albumin (BSA, Xinjingke Biotechnology Co. Ltd., China) in PBS/T (PBS solution containing 0.05% Tween-20) at 310 K for 2 h, followed by three times of washing with PBS/T prior to use. Then, 25 μL/well of each enzymatic reaction mixture and 75 μL/well of D2O were added to the plate (in triplicate) for incubation at 310 K for 1 h. Following three times of washing with PBS/T, 100 μl of primary antibody (phospho-tyrosine mouse mAb, 1:1,000 in PBS/T with 1.5% BSA) was added to each well, and the plate was incubated at 310 K for another 1 h. The plate was again washed three times with PBS/T, and then 100 μl of the secondary antibody (HRP-labeled goat anti-mouse IgG, from Zhongshan Golden Bridge Biotechnology Co. Ltd., China, diluted 1:1,000 in PBS/T with 1.5% BSA) was added to each well and incubated for 1 h at 310 K, followed by three times of washing with PBS/T. Finally, 100 μl of 3,3′,5,5′-tetramethylbenzidine (TMB, Xinjingke Biotechnology Co. Ltd., China) substrate was added to each well, and the plate was incubated at 310 K for 15 min, and then the reaction was stopped by addition of 100 μl of 2 M H2SO4 to each well, and the plate was read on the ELISA plate reader (SpectraMax M5 Molecular Devices Corporation) at 450 nm to determine the OD values. […]

calf thymus DNA (ct-DNA) [3] = assay: Competitive displacement of Hoechst 33342 from ct-DNA by fluorescence titration (minor groove binding); details: for affinity in minor groove binding relative to intercalation with DNA: Ksv Hoechst vs Ksv EB; for Ksv (Stern–Volmer quenching constant), replacing Hoechst from ct-DNA: Tris-HCl pH 7.4, 310 K, λex = 370 nm
Procedure: (§1) Complexes 2 and 4 were dissolved in DMSO to yield a panel of 0.25, 0.5, 1.0, 1.5, 2.0, 3.0, 4.0, and 5.0 mM solutions. The calf thymus DNA (ct-DNA) was dissolved in Tris-HCl buffer (pH = 7.4) to give a […] solution. Ethidium bromide (EB) (10 mM, 2 μl) or Hoechst 33342 (4 mM, 5 μl) and ct-DNA ([…], 978 or 975 μl) was incubated at 310 K for 0.5 h. Then the DMSO solution of complexes (20 μl) was added to the resulting solution and kept incubated. After 2 h, each reaction mixture was measured on an F-4500 fluorescence spectrophotometer (HITACHI) with excitation wavelength at 500 nm and emission spectra from 520 to 700 nm for EB mixed solution and excitation wavelength at 370 nm and emission spectra from 400 to 650 nm for Hoechst 33342 mixed solution. A modified Stern–Volmer plot (Sarwar et al., [2015]) was employed to evaluate the affinity of complexes toward DNA.

calf thymus DNA (ct-DNA) [4] = assay: Competitive displacement of EB from ct-DNA by fluorescence titration (intercalation); format: binding; details: Tris-HCl pH 7.4, 310 K, λex = 500 nm
Procedure: as §1

T1 sequence (P00533 712-979 limits assumed): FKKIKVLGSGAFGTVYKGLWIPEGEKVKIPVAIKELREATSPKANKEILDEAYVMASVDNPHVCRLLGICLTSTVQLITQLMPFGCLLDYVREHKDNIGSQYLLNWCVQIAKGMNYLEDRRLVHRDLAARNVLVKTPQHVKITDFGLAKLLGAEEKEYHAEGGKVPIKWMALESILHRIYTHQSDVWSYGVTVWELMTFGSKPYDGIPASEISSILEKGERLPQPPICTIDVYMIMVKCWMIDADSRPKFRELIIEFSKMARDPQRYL

| IC50 (A549 cells) [µM] | IC50 (A431 cells) [µM] | IC50 [1] [µM] | IC50 (MCF-7 cells) [µM] | IC50 (HeLa cells) [µM] | IC50 [2] [nM] | SMILES | affinity in minor groove binding relative to intercalation with DNA (calf thymus DNA (ct-DNA) [3]) | Ksv (Stern–Volmer quenching constant), replacing Hoechst from ct-DNA (calf thymus DNA (ct-DNA) [3]) [M⁻¹] | Ksv (Stern–Volmer quenching constant), replacing EB from ct-DNA (calf thymus DNA (ct-DNA) [4]) [M⁻¹] |
| --- | --- | --- | --- | --- | --- | --- | --- | --- | --- |
| 13.2 ± 1.8 | 7.7 ± 1.8 | 28.9 ± 1.7 | 20.3 ± 2.7 | 29.8 ± 5 | 9.2 ± 0.6 | COc1cc2ncnc(Nc3ccc(F)c(Cl)c3)c2cc1OCCn1cc[n+]([Pt-2]23[n+]4ccccc4-c4cc(-c5ccc(C)cc5)cc([n+]42)-c2cccc[n+]23)c1.F[P-](F)(F)(F)(F)F.F[P-](F)(F)(F)(F)F [Complex 1] | – | – | – |
| 6.5 ± 2.5 | 1.4 ± 0.4 | 13.5 ± 1.8 | 27.7 ± 2.2 | 19.4 ± 5.6 | 7 ± 3 | COc1cc2ncnc(Nc3ccc(F)c(Cl)c3)c2cc1OCCCn1cc[n+]([Pt-2]23[n+]4ccccc4-c4cc(-c5ccc(C)cc5)cc([n+]42)-c2cccc[n+]23)c1.F[P-](F)(F)(F)(F)F.F[P-](F)(F)(F)(F)F [Complex 2] | ~ 10 times | 313000 | 25900 |
| 12.2 ± 2.2 | 7.4 ± 0.4 | 32 ± 1.6 | 24.8 ± 1.1 | 13.4 ± 1.3 | 10.9 ± 3 | COc1cc2ncnc(Nc3ccc(F)c(Cl)c3)c2cc1OCCn1cc[n+]([Pt-2]23[n+]4ccccc4-c4cc(-c5ccc(Br)cc5)cc([n+]42)-c2cccc[n+]23)c1.F[P-](F)(F)(F)(F)F.F[P-](F)(F)(F)(F)F [Complex 3] | – | – | – |
| 11.6 ± 1.1 | 7.9 ± 3.2 | 26.6 ± 3 | 19.9 ± 2.7 | 39.4 ± 0.1 | 9.6 ± 2.5 | COc1cc2ncnc(Nc3ccc(F)c(Cl)c3)c2cc1OCCCn1cc[n+]([Pt-2]23[n+]4ccccc4-c4cc(-c5ccc(Br)cc5)cc([n+]42)-c2cccc[n+]23)c1.F[P-](F)(F)(F)(F)F.F[P-](F)(F)(F)(F)F [Complex 4] | ~ 10 times | 311000 | 18900 |

| SMILES | IC50 (A549 cells) [µM] | IC50 (A431 cells) [µM] | IC50 [1] [µM] | IC50 (MCF-7 cells) [µM] | IC50 (HeLa cells) [µM] | IC50 [2] [nM] | affinity in minor groove binding relative to intercalation with DNA (calf thymus DNA (ct-DNA) [3]) | Ksv (Stern–Volmer quenching constant), replacing Hoechst from ct-DNA (calf thymus DNA (ct-DNA) [3]) [M⁻¹] | Ksv (Stern–Volmer quenching constant), replacing EB from ct-DNA (calf thymus DNA (ct-DNA) [4]) [M⁻¹] |
| --- | --- | --- | --- | --- | --- | --- | --- | --- | --- |
| N.N.[Cl][Pt][Cl] [Cisplatin, reference compound] | 10.1 ± 1.6 | 11.1 ± 0.4 | 30.9 ± 1.1 | 15.6 ± 0.8 | 12.9 ± 0.6 | – | – | – | – |
